Measurements as given in the supplement of paper PMC10307832.

Tests used:
Experiment in all cases: relative viability (nuclei count vs DMSO), 5 days (fraction); higher = more cells survive
Ispinesib + Decitabine = compound: Cc1ccc(C(=O)N(CCCN)[C@@H](c2nc3cc(Cl)ccc3c(=O)n2Cc2ccccc2)C(C)C)cc1 [Ispinesib] + Nc1ncn([C@H]2C[C@H](O)[C@@H](CO)O2)c(=O)n1 [Decitabine] (partner 2 µM)
Procedure, shortened: (§1)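 The day after seeding in 1536-well plates, lung cancer cell lines were treated by pin tool with a single drug, or with a fixed anchor-drug dose together with five library-drug doses (not always all listed) in √10 steps. After 5 days, a combined fix-and-stain solution (final 0.05% Triton X-100, 1% formaldehyde, 1 ug/ml Hoechst) was added. Nuclei counted on 4× images gave relative viability as treated counts over vehicle counts, reported as the median of duplicate plates.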

Linsitinib + Navitoclax = compound: C[C@]1(O)C[C@@H](c2nc(-c3ccc4ccc(-c5ccccc5)nc4c3)c3c(N)nccn32)C1 [Linsitinib] + CC1(C)CCC(c2ccc(Cl)cc2)=C(CN2CCN(c3ccc(C(=O)NS(=O)(=O)c4ccc(N[C@H](CCN5CCOCC5)CSc5ccccc5)c(S(=O)(=O)C(F)(F)F)c4)cc3)CC2)C1 [Navitoclax] (partner 0.5 µM)
Procedure, shortened: as §1

Linsitinib + Olaparib = compound: C[C@]1(O)C[C@@H](c2nc(-c3ccc4ccc(-c5ccccc5)nc4c3)c3c(N)nccn32)C1 [Linsitinib] + O=C(c1cc(Cc2n[nH]c(=O)c3ccccc23)ccc1F)N1CCN(C(=O)C2CC2)CC1 [Olaparib] (partner 8 µM)
Procedure, shortened: as §1

Linsitinib + Trametinib = compound: C[C@]1(O)C[C@@H](c2nc(-c3ccc4ccc(-c5ccccc5)nc4c3)c3c(N)nccn32)C1 [Linsitinib] + CC(=O)Nc1cccc(-n2c(=O)n(C3CC3)c(=O)c3c(Nc4ccc(I)cc4F)n(C)c(=O)c(C)c32)c1 [Trametinib] (partner 0.02 µM)
Procedure, shortened: as §1

| Cell Line | relative viability (Ispinesib + Decitabine; first compound 0.001 µM) | relative viability (Ispinesib + Decitabine; first compound 0.003162 µM) | relative viability (Ispinesib + Decitabine; first compound 0.01 µM) | relative viability (Ispinesib + Decitabine; first compound 0.03162 µM) | relative viability (Ispinesib + Decitabine; first compound 0.1 µM) | relative viability (Linsitinib + Navitoclax; first compound 0.01 µM) | relative viability (Linsitinib + Navitoclax; first compound 0.03162 µM) | relative viability (Linsitinib + Navitoclax; first compound 0.1 µM) | relative viability (Linsitinib + Navitoclax; first compound 0.3162 µM) | relative viability (Linsitinib + Navitoclax; first compound 1 µM) | relative viability (Linsitinib + Olaparib; first compound 0.01 µM) | relative viability (Linsitinib + Olaparib; first compound 0.03162 µM) | relative viability (Linsitinib + Olaparib; first compound 0.1 µM) | relative viability (Linsitinib + Olaparib; first compound 0.3162 µM) | relative viability (Linsitinib + Olaparib; first compound 1 µM) | relative viability (Linsitinib + Trametinib; first compound 0.03162 µM) | relative viability (Linsitinib + Trametinib; first compound 0.1 µM) | relative viability (Linsitinib + Trametinib; first compound 0.3162 µM) | relative viability (Linsitinib + Trametinib; first compound 1 µM) | relative viability (Linsitinib + Trametinib; first compound 0.01 µM) |
| --- | --- | --- | --- | --- | --- | --- | --- | --- | --- | --- | --- | --- | --- | --- | --- | --- | --- | --- | --- | --- |
| H3255 | 0.573 | 0.629 | 0.622 | 0.495 | 0.41 | 0.615 | 0.504 | 0.499 | 0.433 | 0.395 | 0.6 | 0.604 | 0.564 | 0.456 | 0.5 | 0.664 | 0.593 | 0.528 | 0.579 | – |
| LOU-NH91 | 0.795 | 0.852 | 0.858 | 0.786 | 0.342 | 0.786 | 0.651 | 0.707 | 0.686 | 0.678 | 0.911 | 0.841 | 0.941 | 0.857 | 0.903 | 0.727 | 0.779 | 0.56 | 0.715 | 0.766 |
| NCI-H1666 | 0.638 | 0.795 | 0.779 | 0.656 | 0.625 | 0.994 | 0.867 | 0.939 | 0.549 | 0.646 | 0.743 | 1.02 | 0.76 | 0.667 | 0.75 | 0.907 | 0.904 | 0.644 | 0.594 | 0.8 |
| SK-MES-1 | 0.359 | 0.393 | 0.286 | 0.187 | 0.211 | 1.26 | 1.31 | 1.33 | 0.979 | 1.16 | 0.702 | 0.784 | 0.633 | 0.584 | 0.557 | 0.484 | 0.556 | 0.503 | 0.521 | 0.516 |
| NCI-H2023 | 0.226 | 0.233 | 0.247 | 0.129 | 0.103 | 1.02 | 0.628 | 1.07 | 0.839 | 0.87 | 0.468 | 0.39 | 0.617 | 0.378 | 0.453 | 0.6 | 0.479 | 0.206 | 0.293 | 0.487 |
| COR-L 105 | 0.595 | 0.662 | 0.67 | 0.43 | 0.337 | 0.826 | 0.759 | 0.856 | 0.604 | 0.709 | 0.762 | 0.635 | 0.685 | 0.538 | 0.516 | 0.448 | 0.441 | 0.412 | 0.389 | 0.427 |
| NCI-H838 | 0.457 | 0.45 | 0.46 | 0.236 | 0.181 | 1.14 | 1.12 | 1.21 | 0.875 | 0.986 | 0.754 | 0.722 | 0.73 | 0.482 | 0.533 | 0.498 | 0.435 | 0.333 | 0.369 | 0.464 |
| SW 1573 | 0.44 | 0.58 | 0.421 | 0.156 | 0.199 | 0.921 | 0.925 | 1 | 0.81 | 0.701 | 0.497 | 0.563 | 0.432 | 0.329 | 0.348 | 0.576 | 0.646 | 0.385 | 0.412 | 0.671 |
